This note sets out measurements from ChEMBL document CHEMBL3639260, “5-membered nitrogen containing heterocyclic derivatives and pharmaceutical compositions comprising the same” (2015).

The target in the test is Xanthine dehydrogenase/oxidase (Bos taurus, UniProt P80457). Kind of test: Inhibition Assay: Xanthine oxidase (from bovine milk, Sigma) was prepared with phosphate-buffered saline (PBS) at 0.02 units/mL, and then the solution was added to 96 well plates at 50 μL/well. In addition, test compounds diluted with PBS were added at 50 μL/well. Xanthine (Wako) at 200 μM prepared with PBS was added at 100 μL/well, and the reaction was conducted for 10 minutes at room temperature. Absorbance at 290 nm was measured using a microplate reader SpectraMax Plus 384 (Molecular device). The absorbance under a condition without xanthine is 0%, and control without test compounds is 100%.
Chain of Xanthine dehydrogenase/oxidase (P80457 whole entry): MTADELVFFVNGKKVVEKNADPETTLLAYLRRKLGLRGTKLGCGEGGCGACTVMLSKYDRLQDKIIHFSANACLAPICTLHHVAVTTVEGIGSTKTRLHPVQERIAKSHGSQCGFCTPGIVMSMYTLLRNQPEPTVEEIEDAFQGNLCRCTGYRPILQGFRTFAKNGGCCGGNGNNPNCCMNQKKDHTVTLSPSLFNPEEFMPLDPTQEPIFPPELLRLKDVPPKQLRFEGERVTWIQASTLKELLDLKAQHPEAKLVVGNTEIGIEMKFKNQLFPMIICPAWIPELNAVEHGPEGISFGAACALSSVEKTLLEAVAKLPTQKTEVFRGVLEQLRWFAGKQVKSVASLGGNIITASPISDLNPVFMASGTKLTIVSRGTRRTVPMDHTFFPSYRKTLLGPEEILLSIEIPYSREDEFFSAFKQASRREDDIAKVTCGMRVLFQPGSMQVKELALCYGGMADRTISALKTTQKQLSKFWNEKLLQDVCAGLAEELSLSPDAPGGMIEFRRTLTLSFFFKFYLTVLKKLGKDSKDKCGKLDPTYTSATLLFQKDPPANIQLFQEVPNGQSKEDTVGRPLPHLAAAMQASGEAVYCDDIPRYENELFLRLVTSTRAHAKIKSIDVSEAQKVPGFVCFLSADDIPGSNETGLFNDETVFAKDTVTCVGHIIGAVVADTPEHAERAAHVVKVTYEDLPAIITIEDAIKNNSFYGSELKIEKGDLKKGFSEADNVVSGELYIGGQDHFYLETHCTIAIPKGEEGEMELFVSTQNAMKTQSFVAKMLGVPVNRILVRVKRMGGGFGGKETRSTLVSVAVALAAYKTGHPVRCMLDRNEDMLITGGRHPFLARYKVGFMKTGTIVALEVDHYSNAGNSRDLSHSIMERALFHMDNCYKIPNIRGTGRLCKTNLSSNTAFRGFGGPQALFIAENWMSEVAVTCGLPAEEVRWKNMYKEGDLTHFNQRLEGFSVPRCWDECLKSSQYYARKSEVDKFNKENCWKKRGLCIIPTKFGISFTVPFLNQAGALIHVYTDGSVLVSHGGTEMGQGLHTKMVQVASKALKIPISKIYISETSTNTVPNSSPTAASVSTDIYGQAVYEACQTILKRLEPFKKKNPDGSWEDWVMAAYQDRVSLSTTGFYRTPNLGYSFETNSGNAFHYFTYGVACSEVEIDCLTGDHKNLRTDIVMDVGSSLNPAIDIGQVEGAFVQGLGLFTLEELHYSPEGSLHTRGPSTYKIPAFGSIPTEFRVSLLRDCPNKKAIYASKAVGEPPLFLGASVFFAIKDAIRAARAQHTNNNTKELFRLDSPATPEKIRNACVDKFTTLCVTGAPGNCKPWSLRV

The IC50 is the concentration needed to halve the response being measured. Take `N#Cc1cn(-c2ccc(C(=O)O)cc2)cc1-c1ccccc1OCCOc1ccccc1`: the IC50 is 47 nM. Consider `N#Cc1cn(-c2ccc(C(=O)O)cc2)cc1-c1ccc(OCCCO)cc1`, for which the IC50 came to 63.2 nM.
